Assay results from ChEMBL document CHEMBL1139352, “Synthesis and evaluation of novel inhibitors of Pim-1 and Pim-2 protein kinases” (J Med Chem, 2009).

Columns and labels:
[1] = target: Proto-oncogene tyrosine-protein kinase Src (Homo sapiens) (UniProt P12931); assay: Inhibition of SRC at 5 uM
[2] = target: Rho-associated protein kinase 2 (Homo sapiens) (UniProt O75116); assay: Inhibition of ROCK2 at 5 uM
[3] = target: Protein kinase C beta type (Homo sapiens) (UniProt P05771); assay: Inhibition of PKCbeta2 at 5 uM
Mus musculus [4] = assay: Toxicity in Swiss Webster mouse assessed as creatinine level at 3 mg/kg, ip daily for 7 days measured after 7 days; assay type: organism-based; design: dose 3 mg/kg, route intraperitoneal; conditions: in vivo, 168 h
[5] = target: Mitogen-activated protein kinase 3 (Homo sapiens) (UniProt P27361); assay: Inhibition of Erk1 at 5 uM
[6] = target: Serine/threonine-protein kinase D2 (Homo sapiens) (UniProt Q9BZL6); assay: Inhibition of PKD2 at 5 uM
[7] = target: Epidermal growth factor receptor (Homo sapiens) (UniProt P00533); assay: Inhibition of EGFR at 5 uM
Mus musculus [8] = assay: Toxicity in Swiss Webster mouse assessed as lymphocyte count at 3 mg/kg, ip daily for 7 days measured after 7 days; assay type: organism-based; design: dose 3 mg/kg, route intraperitoneal; conditions: in vivo, 168 h
[9] = target: Interleukin-1 receptor-associated kinase 4 (Homo sapiens) (UniProt Q9NWZ3); assay: Inhibition of IRAK4 at 5 uM
Mus musculus [10] = assay: Toxicity in Swiss Webster mouse assessed as granulocyte count at 10 mg/kg, ip daily for 7 days measured after 7 days; assay type: organism-based; design: dose 10 mg/kg, route intraperitoneal; conditions: in vivo, 168 h
[11] = target: Inhibitor of nuclear factor kappa-B kinase subunit beta (Homo sapiens) (UniProt O14920); assay: Inhibition of IKK-beta at 5 uM
[12] = target: Mitogen-activated protein kinase 9 (Homo sapiens) (UniProt P45984); assay: Inhibition of JNK2 at 5 uM
[13] = target: 3-phosphoinositide-dependent protein kinase 1 (PDPK1) (Homo sapiens) (UniProt O15530); assay: Inhibition of PDK1 at 5 uM
[14] = target: Serine/threonine-protein kinase Sgk1 (Homo sapiens) (UniProt O00141); assay: Inhibition of SGK1 at 5 uM
[15] = target: Serine/threonine-protein kinase Chk2 (Homo sapiens) (UniProt O96017); assay: Inhibition of CHK2 at 5 uM
Mus musculus [16] = assay: Toxicity in Swiss Webster mouse assessed as monocyte count at 3 mg/kg, ip daily for 7 days measured after 7 days; assay type: organism-based; design: dose 3 mg/kg, route intraperitoneal; conditions: in vivo, 168 h
[17] = target: Cytoplasmic tyrosine-protein kinase BMX (Homo sapiens) (UniProt P51813); assay: Inhibition of BMX at 5 uM
[18] = target: Serine/threonine-protein kinase PLK1 (Homo sapiens) (UniProt P53350); assay: Inhibition of PLK1 at 5 uM
Mus musculus [19] = assay: Toxicity in Swiss Webster mouse assessed as K+ level at 3 mg/kg, ip daily for 7 days measured after 7 days; assay type: organism-based; design: dose 3 mg/kg, route intraperitoneal; conditions: in vivo, 168 h
Mus musculus [20] = assay: Toxicity in Swiss Webster mouse assessed as hemoglobin level at 50 mg/kg, ip daily for 7 days measured after 7 days; assay type: organism-based; design: dose 50 mg/kg, route intraperitoneal; conditions: in vivo, 168 h
Mus musculus [21] = assay: Toxicity in Swiss Webster mouse assessed as amylase level at 50 mg/kg, ip daily for 7 days measured after 7 days; assay type: organism-based; design: dose 50 mg/kg, route intraperitoneal; conditions: in vivo, 168 h
Mus musculus [22] = assay: Toxicity in Swiss Webster mouse assessed as glucose level at 10 mg/kg, ip daily for 7 days measured after 7 days; assay type: organism-based; design: dose 10 mg/kg, route intraperitoneal; conditions: in vivo, 168 h
[23] = target: MAP kinase-activated protein kinase 2 (Homo sapiens) (UniProt P49137); assay: Inhibition of MAPKAPK2 at 5 uM
[24] = target: Insulin receptor (Homo sapiens) (UniProt P06213); assay: Inhibition of INSR at 5 uM
Mus musculus [25] = assay: Toxicity in Swiss Webster mouse assessed as phosphate level at 3 mg/kg, ip daily for 7 days measured after 7 days; assay type: organism-based; design: dose 3 mg/kg, route intraperitoneal; conditions: in vivo, 168 h
Mus musculus [26] = assay: Toxicity in Swiss Webster mouse assessed as amylase level at 10 mg/kg, ip daily for 7 days measured after 7 days; assay type: organism-based; design: dose 10 mg/kg, route intraperitoneal; conditions: in vivo, 168 h
Mus musculus [27] = assay: Toxicity in Swiss-Webster mouse at 100 mg/kg, ip daily for 5 days; assay type: organism-based; design: dose 100 mg/kg, route intraperitoneal; conditions: in vivo, 120 h
[28] = target: Platelet-derived growth factor receptor alpha (Homo sapiens) (UniProt P16234); assay: Inhibition of PDGFRalpha at 5 uM
Mus musculus [29] = assay: Toxicity in Swiss Webster mouse assessed as lymphocyte count at 50 mg/kg, ip daily for 7 days measured after 7 days; assay type: organism-based; design: dose 50 mg/kg, route intraperitoneal; conditions: in vivo, 168 h
[30] = Inhibition of CAMK2 at 5 uM
[31] = target: Ribosomal protein S6 kinase beta-1 (Homo sapiens) (UniProt P23443); assay: Inhibition of p70S6K at 5 uM
[32] = target: Tyrosine-protein kinase SYK (Homo sapiens) (UniProt P43405); assay: Inhibition of SYK at 5 uM
[33] = target: Fibroblast growth factor receptor 1 (Homo sapiens) (UniProt P11362); assay: Inhibition of FGFR1 at 5 uM
Mus musculus [34] = assay: Toxicity in Swiss Webster mouse assessed as alanine aminotransferase level at 10 mg/kg, ip daily for 7 days measured after 7 days; assay type: organism-based; design: dose 10 mg/kg, route intraperitoneal; conditions: in vivo, 168 h
Mus musculus [35] = assay: Toxicity in Swiss Webster mouse assessed as albumin level at 3 mg/kg, ip daily for 7 days measured after 7 days; assay type: organism-based; design: dose 3 mg/kg, route intraperitoneal; conditions: in vivo, 168 h
[36] = target: Vascular endothelial growth factor receptor 2 (Homo sapiens) (UniProt P35968); assay: Inhibition of KDR at 5 uM
Mus musculus [37] = assay: Toxicity in Swiss Webster mouse assessed as K+ level at 50 mg/kg, ip daily for 7 days measured after 7 days; assay type: organism-based; design: dose 50 mg/kg, route intraperitoneal; conditions: in vivo, 168 h
Mus musculus [38] = assay: Toxicity against mouse JC cells xenografted BALB/c mouse assessed as loss of body weight at 50 mg/kg, ip for 5 days per week; assay type: organism-based; design: dose 50 mg/kg, route intraperitoneal; conditions: in vivo, 120 h
[39] = Inhibition of PKGalpha at 5 uM
Mus musculus [40] = assay: Toxicity in Swiss Webster mouse assessed as phosphate level at 50 mg/kg, ip daily for 7 days measured after 7 days; assay type: organism-based; design: dose 50 mg/kg, route intraperitoneal; conditions: in vivo, 168 h
Mus musculus [41] = assay: Toxicity in Swiss Webster mouse assessed as Na+ level at 10 mg/kg, ip daily for 7 days measured after 7 days; assay type: organism-based; design: dose 10 mg/kg, route intraperitoneal; conditions: in vivo, 168 h
Mus musculus [42] = assay: Toxicity in Swiss Webster mouse assessed as alanine aminotransferase level at 3 mg/kg, ip daily for 7 days measured after 7 days; assay type: organism-based; design: dose 3 mg/kg, route intraperitoneal; conditions: in vivo, 168 h
Mus musculus [43] = assay: Toxicity in Swiss Webster mouse assessed as blood urea nitrogen level at 3 mg/kg, ip daily for 7 days measured after 7 days; assay type: organism-based; design: dose 3 mg/kg, route intraperitoneal; conditions: in vivo, 168 h
Mus musculus [44] = assay: Toxicity in Swiss Webster mouse assessed as blood urea nitrogen level at 10 mg/kg, ip daily for 7 days measured after 7 days; assay type: organism-based; design: dose 10 mg/kg, route intraperitoneal; conditions: in vivo, 168 h
Mus musculus [45] = assay: Toxicity in Swiss Webster mouse assessed as phosphate level at 10 mg/kg, ip daily for 7 days measured after 7 days; assay type: organism-based; design: dose 10 mg/kg, route intraperitoneal; conditions: in vivo, 168 h
Mus musculus [46] = assay: Toxicity in Swiss Webster mouse assessed as K+ level at 10 mg/kg, ip daily for 7 days measured after 7 days; assay type: organism-based; design: dose 10 mg/kg, route intraperitoneal; conditions: in vivo, 168 h
[47] = target: Mitogen-activated protein kinase 1 (Homo sapiens) (UniProt P28482); assay: Inhibition of Erk2 at 5 uM
Mus musculus [48] = assay: Toxicity in Swiss Webster mouse assessed as alkaline phosphatase level at 10 mg/kg, ip daily for 7 days measured after 7 days; assay type: organism-based; design: dose 10 mg/kg, route intraperitoneal; conditions: in vivo, 168 h
Mus musculus [49] = assay: Toxicity in Swiss-Webster mouse at 50 mg/kg, ip daily for 5 days; assay type: organism-based; design: dose 50 mg/kg, route intraperitoneal; conditions: in vivo, 120 h

Sequence of Fibroblast growth factor receptor 1 (Homo sapiens) (P11362 22-822 limits assumed): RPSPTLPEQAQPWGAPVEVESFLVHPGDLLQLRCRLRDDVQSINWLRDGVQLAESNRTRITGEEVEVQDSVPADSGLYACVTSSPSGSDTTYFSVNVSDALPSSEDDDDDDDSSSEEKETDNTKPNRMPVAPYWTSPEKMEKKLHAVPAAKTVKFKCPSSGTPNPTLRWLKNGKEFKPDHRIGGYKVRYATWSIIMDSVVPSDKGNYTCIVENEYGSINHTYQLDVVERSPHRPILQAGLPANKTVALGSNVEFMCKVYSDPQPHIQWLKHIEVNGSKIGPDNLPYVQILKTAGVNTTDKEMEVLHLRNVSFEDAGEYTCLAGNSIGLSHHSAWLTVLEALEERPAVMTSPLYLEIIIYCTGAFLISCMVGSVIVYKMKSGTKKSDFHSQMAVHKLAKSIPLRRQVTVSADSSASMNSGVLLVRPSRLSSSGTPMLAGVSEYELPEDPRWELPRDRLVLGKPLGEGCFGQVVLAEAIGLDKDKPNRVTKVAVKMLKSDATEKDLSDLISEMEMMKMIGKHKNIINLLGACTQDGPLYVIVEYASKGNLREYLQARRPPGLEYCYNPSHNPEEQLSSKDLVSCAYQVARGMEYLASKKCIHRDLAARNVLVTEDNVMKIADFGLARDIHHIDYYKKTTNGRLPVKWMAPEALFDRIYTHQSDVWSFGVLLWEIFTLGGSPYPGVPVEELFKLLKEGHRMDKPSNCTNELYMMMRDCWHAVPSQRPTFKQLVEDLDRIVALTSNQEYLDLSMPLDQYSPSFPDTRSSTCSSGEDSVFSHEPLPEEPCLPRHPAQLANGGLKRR
Sequence of Interleukin-1 receptor-associated kinase 4 (Homo sapiens) (Q9NWZ3 whole entry): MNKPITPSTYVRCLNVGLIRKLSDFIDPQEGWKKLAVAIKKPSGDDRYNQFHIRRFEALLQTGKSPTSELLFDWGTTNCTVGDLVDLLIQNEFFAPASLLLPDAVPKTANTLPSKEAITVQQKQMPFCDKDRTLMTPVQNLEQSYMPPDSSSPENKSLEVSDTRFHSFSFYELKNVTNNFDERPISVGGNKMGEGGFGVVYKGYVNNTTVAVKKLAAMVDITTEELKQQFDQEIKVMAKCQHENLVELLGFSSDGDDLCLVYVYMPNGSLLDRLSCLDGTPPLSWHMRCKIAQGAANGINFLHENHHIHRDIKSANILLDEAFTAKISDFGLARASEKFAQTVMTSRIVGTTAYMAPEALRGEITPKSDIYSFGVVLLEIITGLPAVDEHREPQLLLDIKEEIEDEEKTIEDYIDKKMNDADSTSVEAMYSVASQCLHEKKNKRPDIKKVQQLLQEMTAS
Sequence of Platelet-derived growth factor receptor alpha (Homo sapiens) (P16234 whole entry): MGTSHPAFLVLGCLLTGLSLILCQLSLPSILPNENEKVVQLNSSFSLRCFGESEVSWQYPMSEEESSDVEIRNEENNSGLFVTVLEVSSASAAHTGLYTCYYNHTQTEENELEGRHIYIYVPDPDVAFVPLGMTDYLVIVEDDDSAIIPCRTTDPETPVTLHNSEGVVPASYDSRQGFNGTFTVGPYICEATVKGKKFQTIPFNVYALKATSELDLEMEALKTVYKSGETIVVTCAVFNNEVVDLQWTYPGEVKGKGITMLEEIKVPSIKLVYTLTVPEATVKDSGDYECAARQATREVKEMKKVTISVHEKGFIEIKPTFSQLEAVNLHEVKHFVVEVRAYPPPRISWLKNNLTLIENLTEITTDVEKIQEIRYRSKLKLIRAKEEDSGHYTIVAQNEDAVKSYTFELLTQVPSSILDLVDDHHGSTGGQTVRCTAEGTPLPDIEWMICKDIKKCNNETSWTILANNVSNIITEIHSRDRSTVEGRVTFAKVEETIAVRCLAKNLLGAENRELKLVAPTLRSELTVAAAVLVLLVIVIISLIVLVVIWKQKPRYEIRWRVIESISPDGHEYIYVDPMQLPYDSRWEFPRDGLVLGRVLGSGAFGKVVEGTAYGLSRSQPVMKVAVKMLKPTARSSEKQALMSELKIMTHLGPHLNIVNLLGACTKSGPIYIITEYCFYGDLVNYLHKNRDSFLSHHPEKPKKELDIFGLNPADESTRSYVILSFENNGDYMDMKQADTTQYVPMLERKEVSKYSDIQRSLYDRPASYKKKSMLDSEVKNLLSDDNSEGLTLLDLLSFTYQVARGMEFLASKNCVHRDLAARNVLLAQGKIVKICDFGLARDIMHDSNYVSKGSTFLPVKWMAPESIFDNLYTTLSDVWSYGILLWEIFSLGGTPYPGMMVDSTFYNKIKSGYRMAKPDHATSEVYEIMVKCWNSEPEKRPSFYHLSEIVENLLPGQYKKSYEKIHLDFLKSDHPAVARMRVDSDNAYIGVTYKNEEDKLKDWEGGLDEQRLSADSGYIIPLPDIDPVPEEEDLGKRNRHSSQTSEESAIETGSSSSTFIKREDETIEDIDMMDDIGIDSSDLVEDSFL
Sequence of Mitogen-activated protein kinase 1 (Homo sapiens) (P28482 whole entry): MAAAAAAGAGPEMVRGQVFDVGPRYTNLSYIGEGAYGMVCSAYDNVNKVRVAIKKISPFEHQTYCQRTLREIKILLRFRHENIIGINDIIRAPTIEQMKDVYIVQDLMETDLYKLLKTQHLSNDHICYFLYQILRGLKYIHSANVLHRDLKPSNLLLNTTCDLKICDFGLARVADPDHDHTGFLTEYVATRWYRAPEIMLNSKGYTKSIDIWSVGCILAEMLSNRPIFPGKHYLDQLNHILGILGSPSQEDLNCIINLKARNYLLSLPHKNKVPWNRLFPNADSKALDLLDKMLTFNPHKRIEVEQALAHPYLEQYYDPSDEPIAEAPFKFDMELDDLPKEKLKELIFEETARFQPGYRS
Sequence of Protein kinase C beta type (Homo sapiens) (P05771 2-671 limits assumed): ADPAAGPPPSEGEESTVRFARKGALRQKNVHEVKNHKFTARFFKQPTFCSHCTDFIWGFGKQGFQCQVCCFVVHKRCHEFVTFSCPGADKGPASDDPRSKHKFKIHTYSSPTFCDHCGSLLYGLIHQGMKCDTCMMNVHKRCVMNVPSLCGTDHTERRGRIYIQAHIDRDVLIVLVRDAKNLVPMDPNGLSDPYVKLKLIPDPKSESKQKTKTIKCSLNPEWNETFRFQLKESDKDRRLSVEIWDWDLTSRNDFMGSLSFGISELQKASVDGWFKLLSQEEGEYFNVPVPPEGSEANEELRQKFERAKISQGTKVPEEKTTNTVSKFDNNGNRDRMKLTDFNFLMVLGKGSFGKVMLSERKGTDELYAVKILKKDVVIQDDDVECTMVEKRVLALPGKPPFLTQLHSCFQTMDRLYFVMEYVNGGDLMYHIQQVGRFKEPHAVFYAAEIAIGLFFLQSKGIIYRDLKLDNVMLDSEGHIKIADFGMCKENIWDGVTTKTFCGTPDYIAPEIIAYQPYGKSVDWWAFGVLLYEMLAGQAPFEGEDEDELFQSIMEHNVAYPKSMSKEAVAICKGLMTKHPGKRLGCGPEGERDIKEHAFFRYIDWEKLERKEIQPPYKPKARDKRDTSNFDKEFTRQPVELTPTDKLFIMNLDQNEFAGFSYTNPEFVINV
Sequence of Mitogen-activated protein kinase 9 (Homo sapiens) (P45984 whole entry, looked up): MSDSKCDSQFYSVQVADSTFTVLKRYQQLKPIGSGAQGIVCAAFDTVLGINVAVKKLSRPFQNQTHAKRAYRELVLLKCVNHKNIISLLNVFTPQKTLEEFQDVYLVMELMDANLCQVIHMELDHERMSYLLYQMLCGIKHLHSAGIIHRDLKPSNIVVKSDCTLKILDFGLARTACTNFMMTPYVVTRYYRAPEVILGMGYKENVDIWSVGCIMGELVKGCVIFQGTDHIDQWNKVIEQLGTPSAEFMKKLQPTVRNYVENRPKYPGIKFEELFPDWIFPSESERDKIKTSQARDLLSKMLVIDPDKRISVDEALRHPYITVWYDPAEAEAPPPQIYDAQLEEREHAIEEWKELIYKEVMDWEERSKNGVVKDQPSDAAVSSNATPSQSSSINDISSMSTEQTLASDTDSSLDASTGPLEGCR
Sequence of MAP kinase-activated protein kinase 2 (Homo sapiens) (P49137 whole entry, looked up): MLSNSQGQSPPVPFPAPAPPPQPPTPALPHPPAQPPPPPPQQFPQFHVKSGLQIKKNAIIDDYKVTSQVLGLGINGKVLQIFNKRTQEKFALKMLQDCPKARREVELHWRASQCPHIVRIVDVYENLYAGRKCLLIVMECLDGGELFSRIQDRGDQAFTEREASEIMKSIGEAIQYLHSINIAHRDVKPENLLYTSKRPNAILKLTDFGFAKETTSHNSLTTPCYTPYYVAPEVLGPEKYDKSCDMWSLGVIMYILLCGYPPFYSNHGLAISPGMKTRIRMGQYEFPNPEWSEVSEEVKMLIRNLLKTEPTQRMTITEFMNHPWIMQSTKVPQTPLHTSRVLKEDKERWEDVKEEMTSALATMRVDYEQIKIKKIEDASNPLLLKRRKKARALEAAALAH
Sequence of Serine/threonine-protein kinase PLK1 (Homo sapiens) (P53350 whole entry): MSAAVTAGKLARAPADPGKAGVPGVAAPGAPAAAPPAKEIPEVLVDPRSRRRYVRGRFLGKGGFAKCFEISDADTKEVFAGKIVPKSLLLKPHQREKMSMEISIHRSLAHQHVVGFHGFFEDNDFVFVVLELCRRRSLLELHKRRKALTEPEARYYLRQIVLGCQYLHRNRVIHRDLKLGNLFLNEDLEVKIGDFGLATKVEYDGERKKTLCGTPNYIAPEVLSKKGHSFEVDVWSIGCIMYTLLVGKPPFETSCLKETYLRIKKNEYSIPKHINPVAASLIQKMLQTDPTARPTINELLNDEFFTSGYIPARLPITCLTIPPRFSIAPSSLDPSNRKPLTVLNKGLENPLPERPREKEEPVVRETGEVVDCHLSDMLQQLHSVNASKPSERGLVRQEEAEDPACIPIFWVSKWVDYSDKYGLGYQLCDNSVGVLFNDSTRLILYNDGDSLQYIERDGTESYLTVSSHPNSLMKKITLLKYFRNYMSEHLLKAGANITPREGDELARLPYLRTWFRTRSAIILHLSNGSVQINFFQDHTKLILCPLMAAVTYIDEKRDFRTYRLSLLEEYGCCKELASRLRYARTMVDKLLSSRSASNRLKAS

CCCOc1ccc(/C=C2\SC(=O)NC2=O)cc1
inhibition [1]: 4%
inhibition [2]: 5%
inhibition [3]: -1%
Activity (Mus musculus [4]): 0.2 mg/dL
inhibition [5]: 1%
inhibition [6]: -3%
inhibition [7]: -3%
Activity (Mus musculus [8]): 3.61 ×10⁹ /L
inhibition [9]: 5%
Activity (Mus musculus [10]): 0.61 ×10⁹ /L
inhibition [11]: 10%
inhibition [12]: 14%
inhibition [13]: 1%
inhibition [14]: 5%
inhibition [15]: 4%
Activity (Mus musculus [16]): 0.11 ×10⁹ /L
inhibition [17]: 10%
inhibition [18]: 9%
Activity (Mus musculus [19]): 7.3 mmol/L
Activity (Mus musculus [20]): 12.2 g/dL
Activity (Mus musculus [21]): 760 U/L
Activity (Mus musculus [22]): 87 mg/dL
inhibition [23]: 5%
inhibition [24]: 4%
Activity (Mus musculus [25]): 5.1 mg/dL
Activity (Mus musculus [26]): 816 U/L
Activity (Mus musculus [27]): Toxic
inhibition [28]: 6%
Activity (Mus musculus [29]): 3.5 ×10⁹ /L
inhibition [30]: -1%
inhibition [31]: 8%
inhibition [32]: -3%
inhibition [33]: 1%
Activity (Mus musculus [34]): 44 U/L
Activity (Mus musculus [35]): 3.3 g/dL
inhibition [36]: -4%
Activity (Mus musculus [37]): 6.3 mmol/L
Activity (Mus musculus [38]): Non-toxic
inhibition [39]: 0%
Activity (Mus musculus [40]): 5.5 mg/dL
Activity (Mus musculus [41]): 144 mmol/L
Activity (Mus musculus [42]): 40 U/L
Activity (Mus musculus [43]): 17 mg/dL
Activity (Mus musculus [44]): 11 mg/dL
Activity (Mus musculus [45]): 5.7 mg/dL
Activity (Mus musculus [46]): 7.2 mmol/L
inhibition [47]: -1%
Activity (Mus musculus [48]): 85 U/L
Activity (Mus musculus [49]): Non-toxic
